{
  "source": "patent US6281250A",
  "about": "“Retinyl ethers, derivatives and analogues and inhibition of breast carcinogenesis” (Southern Research Institute, priority 1999, dated 2001)",
  "key": {"[1]": {"target": "T1, cellular retinol-binding protein (CRBP) (Rattus norvegicus, UniProt P02696)", "T1 construct": "portions of rat testes cytosol (1 mg protein) were incubated; from tissue; host or cells: rat testes cytosol", "T1 sequence (P02696 1-135)": "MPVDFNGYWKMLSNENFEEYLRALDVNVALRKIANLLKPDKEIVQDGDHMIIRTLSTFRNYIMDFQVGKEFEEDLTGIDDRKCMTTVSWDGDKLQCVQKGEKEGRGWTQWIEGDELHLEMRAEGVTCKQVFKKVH", "test": "Binding to cellular retinol-binding protein (CRBP): inhibition of [3H]retinol binding, sucrose density-gradient sedimentation", "conditions": "for binding to CRBP, in words: 150-fold molar excess; for Percent Inhibition of [3H] Retinol Binding (CRBP Assay): 150-fold molar excess of unlabelled test retinoid, rat testes cytosol", "description": "Binding affinities of the retinyl ethers for CRBP were determined by sucrose, density-gradient, sedimentation analysis as described before (Sani et al., 1980). Briefly, portions of rat testes cytosol (1 mg protein) were incubated with [^3 H]retinol (50 pmol) in the presence or absence of a 150-fold molar excess of unlabeled retinol or the test retinoids. The preparations after dialysis were analyzed by 5-20% sucrose density gradient sedimentation. For measuring the competitive binding of the unlabeled retinoids, inhibition of [^3 H]retinol binding to CRBP by unlabeled retinol is regarded as 100%. The mean and standard deviation calculated from the relative inhibitions obtained from multiple determinations were used as the relative binding affinities of the various retinyl ethers.\nThe group of retinyl benzyl ethers has now been evaluated for binding to CRBP. Binding to CRBP, as defined for Table I, at approximately 60% or higher was rated as strong; at 40-60%, as moderate; at 20-40%, as low.\n^a Per cent inhibition of binding of tritiated retinol to CRBP by a\n150-fold molar excess of the unlabelled test retinoid (Sani et al., 1980,"}, "[2]": {"conditions": "24 hours or similar, protected from light and air; Shealy et al, 1997; cited from earlier work"}, "[3]": {"conditions": "rat, in feed; Shealy et al., 1997; cited from earlier work"}, "[4]": {"tested_on": "MNU-induced mammary cancer", "test": "Short-term (90-day) assay against MNU-induced mammary cancer in rats (Expts. 2 and 3)", "format": "in vivo, rat (female Sprague-Dawley)", "conditions": "90 days", "description": "Retinoid diet mixtures were stored at 4° C. […] The animals were palpated for mammary tumors 2×/week. […] Also, five rats/group had complete necropsies performed.\n(§1) The 2,5-dimethoxybenzyl (3b) and 4-methoxybenzyl (3e) ethers were tested in the same way in a 90-day study. […] The 2,5-dimethybenzyl (3c) and the 2,3-dimethoxybenzyl (3h) ethers, together with RTMBE for comparison, were likewise assayed according to the same methodology. Prior to the beginning of this study, specimens of the retinoid-diet mixtures were placed under the conditions that were employed during the storage and feeding of RTMBE, 3c, and 3h. The specimens were extracted with butanol, and the extracts were analyzed by HPLC. […] Testing of 3c and 3h was discontinued, but the RTMBE study was continued until the duration of the study was 180 days (Table 6). The results were similar to those of Experiment 1 (Table 3). The averages of the number of tumors per rat were reduced by 32-35%; in addition, the averages of the tumor weights per rat was 56-70% lower than the average tumor burden of the control group.\nand was continued until the studies of 3b, 3c, 3e, and 3h were terminated\n90 days after administration of MNU. The RTMBE experiment was continued\nuntil 180 days after MNU administration (Table VI).\nkilogram of Teklad diet."}, "[5]": {"tested_on": "MNU-induced mammary tumors", "conditions": "with MNU, 1 mmol/kg diet", "experimental": "The methods employed in the preparation of diets, analyses of retinoid-dietspecimens, and dietary treatment with retinoids of MNU-induced mammary carcinogenesis in Sprague-Dawley rats were described previously (Grubbs et al., 1995; Shealy et al., 1997). Briefly, diets were prepared by mixing each retinoid with Wayne meal or Teklad (4%) mash diet. For each kg of diet, the retinoid was dissolved in 12 g ethanol, 19 g trioctanoin, 0.05 mL Tenox 20, and 0.05 mL d,1-alpha tocopherol prior to incorporation into the feed using a Patterson-Kelly blender. Retinoid diet mixtures were stored at 4° C. Portions of each retinoid-diet mixture were analyzed for the added retinoid to ensure homogeneity. Female Sprague-Dawley rats received an i.v. injection of MNU (45 mg/kg body weight) at 50 days of age. Diet supplementation with retinoids was initiated three days after MNU. A group of rats receiving retinyl acetate (1 mmol/kg of diet) served as the positive control. The animals were palpated for mammary tumors 2×/week. At termination of the study, mammary tumors were processed for histological classification. Also, five rats/group had complete necropsies performed. The tissues were examined histologically for pathological lesions as additional toxicological evaluation. Extracts of the liver and mammary gland (5 rats/group) were analyzed by HPLC for retinyl palmitate and/or for the dosed retinoid. Statistical analyses of cancer incidence and latency were determined using logrank analysis, while differences in cancer multiplicity were determined employing the Armitage test.\n^b Average number of palpable mammary tumors.\n^c Diet supplementation with retinoids was initiated at 52 days of age\nand was continued until the study was terminated 180 days after\nadministration of MNU. Treatment with retinoids is stated in millimoles of\nretinoid per kilogram of diet (Wayne meal).\n^d Female Sprague-Dawley rats received one i.v. injection of MNU (50\nmg/kg of body weight) at 50 days of age."}, "[6]": {"tested_on": "MNU-induced mammary cancer", "conditions": "160 days", "experimental": "Briefly, diets were prepared by mixing each retinoid with Wayne meal or Teklad (4%) mash diet. For each kg of diet, the retinoid was dissolved in 12 g ethanol, 19 g trioctanoin, 0.05 mL Tenox 20, and 0.05 mL d,1-alpha tocopherol prior to incorporation into the feed using a Patterson-Kelly blender. Retinoid diet mixtures were stored at 4° C. Portions of each retinoid-diet mixture were analyzed for the added retinoid to ensure homogeneity. Female Sprague-Dawley rats received an i.v. injection of MNU (45 mg/kg body weight) at 50 days of age. Diet supplementation with retinoids was initiated three days after MNU. A group of rats receiving retinyl acetate (1 mmol/kg of diet) served as the positive control. The animals were palpated for mammary tumors 2×/week. At termination of the study, mammary tumors were processed for histological classification. Also, five rats/group had complete necropsies performed. The tissues were examined histologically for pathological lesions as additional toxicological evaluation. Extracts of the liver and mammary gland (5 rats/group) were analyzed by HPLC for retinyl palmitate and/or for the dosed retinoid. Statistical analyses of cancer incidence and latency were determined using logrank analysis, while differences in cancer multiplicity were determined employing the Armitage test.\nIn this assay, described previously (Grubbs et al., 1995; Shealy el al., 1997), a retinoid dissolved in a solution (vehicle) consisting of ethanol and trioctanoin plus small amounts of Tenox 20 and α-tocopherol was mixed with feed, and the mixture was fed to rats after intravenous injection of MNU.\n^a Female Sprague-Dawley rats (10/group) received one i.v. injection of\nMNU (45 mg/kg of body weight) at 50 days of age. Diet supplementation with\nretinoids was initiated at 52 days of age and was continued until the\nstudy was terminated 160 days after administration of MNU.\n^b Treatment with retinoids is stated in millimoles of retinoid per\nkilogram of diet (Wayne meal)."}, "[7]": {"test": "Analysis of feed samples for stability of retinyl ethers", "format": "physicochemical", "description": "as §1\n^a The values in each column are % recoveries of the retinyl ether from\nmixtures of the ether with feed samples and are based on the actual\namounts of the ether that were added.\n^b The samples that were analyzed were mixtures of vehicle, retinoid,\nand feed (prepared as described by Shealy et al., 1997).\n^c Food cups were placed in animal cages within the room that housed\nthe rats; therefore, temperature (22° C.) and lighting were\nidentical to those in use during the in vivo tests."}},
  "data": [
    {"smiles": "COc1cccc(COC/C=C(C)/C=C/C=C(C)/C=C/C2=C(C)CCCC2(C)C)c1", "note": "[Compound 3f, Retinyl 3-Methoxy Benzyl Ether]", "values": [
      {"measurement": "binding to CRBP, in words", "setting": "[1]", "value": "modest, but significant, binding affinity"},
      {"measurement": "Percent Inhibition of [3H] Retinol Binding (CRBP Assay)", "setting": "[1]", "value": "20 ± 5", "unit": "%"}
    ]},
    {"smiles": "CC#CCOCC#CC", "note": "[Compound 1e, 2-butynyl ether]", "values": [
      {"measurement": "stability in refluxing ethanol", "setting": "[2]", "value": "intramolecular cyclization"}
    ]},
    {"smiles": "CC(=O)OC/C=C(C)/C=C/C=C(C)/C=C/C1=C(C)CCCC1(C)C", "note": "[Retinyl Acetate, retinyl acetate, reference compound]", "values": [
      {"measurement": "accumulation of retinyl palmitate in the liver", "setting": "[3]", "value": "a toxic effect produced by efficacious amounts"},
      {"measurement": "reduction of the number of tumors per rat", "setting": "[4]; at 1 mmol/kg", "value": 66, "unit": "%"},
      {"measurement": "Tumors, % of Control Gp.", "setting": "[4]; Expt. 2, 1 mmol/kg diet", "value": 34, "unit": "%"},
      {"measurement": "Tumors, Avg. No. per Rat", "setting": "[4]; Expt. 2, 1 mmol/kg diet", "value": 1.2},
      {"measurement": "% of Control Gp., Day 90", "setting": "[5]", "value": 48, "unit": "%"},
      {"measurement": "% of Control Gp., Day 180", "setting": "[5]", "value": 49, "unit": "%"},
      {"measurement": "Avg No. Per Rat (palpable mammary tumors), Day 90", "setting": "[5]", "value": 1.1},
      {"measurement": "Avg No. Per Rat (palpable mammary tumors), Day 180", "setting": "[5]", "value": 3.1},
      {"measurement": "Adenocarcinomas, % of Control Group A", "setting": "[6]; 1 mmol/kg diet", "value": 70, "unit": "%"},
      {"measurement": "Adenocarcinomas, Avg. No. Per Rat", "setting": "[6]; 1 mmol/kg diet", "value": 4.5},
      {"measurement": "reduction of average number of tumors per rat", "setting": "[6]; 1 mmol/kg feed", "value": 30, "unit": "%"}
    ]},
    {"smiles": "CC1=C(/C=C/C(C)=C/C=C/C(C)=C/COCc2ccc(C)cc2)C(C)(C)CCC1", "note": "[Compound 3g, Retinyl 4-Methylbenzyl Ether]", "values": [
      {"measurement": "binding to CRBP, in words", "setting": "[1]", "value": "not conducive to CRBP binding"},
      {"measurement": "Percent Inhibition of [3H] Retinol Binding (CRBP Assay)", "setting": "[1]", "value": 0, "unit": "%"}
    ]},
    {"smiles": "COc1ccc(COC/C=C(C)/C=C/C=C(C)/C=C/C2=C(C)CCCC2(C)C)c(OC)c1OC", "note": "[Compound 3i, Retinyl 2,3,4-Trimethoxybenzyl Ether]", "values": [
      {"measurement": "Percent Inhibition of [3H] Retinol Binding (CRBP Assay)", "setting": "[1]", "value": "5 ± 5", "unit": "%"}
    ]},
    {"smiles": "COc1cccc(COC/C=C(C)/C=C/C=C(C)/C=C/C2=C(C)CCCC2(C)C)c1OC", "note": "[Compound 3h, Retinyl 2,3-Dimethoxybenzyl Ether]", "values": [
      {"measurement": "effectiveness in reducing the number of tumors per rat", "setting": "[4]; in feed", "value": "not effective"},
      {"measurement": "Tumors, % of Control Gp.", "setting": "[4]; Expt. 3, 0.5 mmol/kg diet", "value": 114, "unit": "%"},
      {"measurement": "Tumors, Avg. No. per Rat", "setting": "[4]; Expt. 3, 0.5 mmol/kg diet", "value": 2.2},
      {"measurement": "Tumors, % of Control Gp.", "setting": "[4]; Expt. 3, 1 mmol/kg diet", "value": 104, "unit": "%"},
      {"measurement": "Tumors, Avg. No. per Rat", "setting": "[4]; Expt. 3, 1 mmol/kg diet", "value": 2.0},
      {"measurement": "Tumors, % of Control Gp.", "setting": "[4]; Expt. 3, 2 mmol/kg diet", "value": 145, "unit": "%"},
      {"measurement": "Tumors, Avg. No. per Rat", "setting": "[4]; Expt. 3, 2 mmol/kg diet", "value": 2.8},
      {"measurement": "% recovery of retinyl ether from feed", "setting": "[7]; After 1 week of 4° C., 10080 min", "value": 99.7, "unit": "%"},
      {"measurement": "% recovery of retinyl ether from feed", "setting": "[7]; After 1 day in food cup (22° C.)", "value": 95, "unit": "%"},
      {"measurement": "% recovery of retinyl ether from feed", "setting": "[7]; After 2 days in food cup (22° C.)", "value": 94, "unit": "%"},
      {"measurement": "% recovery of retinyl ether from feed", "setting": "[7]; After 3 days in food cup (22° C.)", "value": 97.9, "unit": "%"},
      {"measurement": "% recovery of retinyl ether from feed", "setting": "[7]; Immediately After Mixing", "value": 95, "unit": "%"},
      {"measurement": "% recovery of retinyl ether", "setting": "[7]; Vehicle + Retinoid (only)", "value": 98.7, "unit": "%"},
      {"measurement": "stability in diet mixtures", "setting": "[7]; conditions of storage and feeding in animal rooms", "value": "essentially unchanged"},
      {"measurement": "Percent Inhibition of [3H] Retinol Binding (CRBP Assay)", "setting": "[1]", "value": 0, "unit": "%"}
    ]},
    {"smiles": "CC1=C(/C=C/C(C)=C/C=C/C(C)=C/COCc2c(C)cc(C)cc2C)C(C)(C)CCC1", "note": "[Compound 3j, Retinyl 2,4,6-Trimethylbenzyl Ether]", "values": [
      {"measurement": "Percent Inhibition of [3H] Retinol Binding (CRBP Assay)", "setting": "[1]", "value": "7 ± 6", "unit": "%"}
    ]}
  ]
}
